Experimental findings from patent publication US20230106238A1, “PHARMACEUTICAL COMPOSITION FOR PREVENTING OR TREATING NK/T-CELLLYMPHOMA OR NK-CELL LEUKEMIA, COMPRISING PHOSPHODIESTERASE TYPE 5 INHIBITOR” (SAMSUNG LIFE PUBLIC WELFARE FOUNDATION, priority 2020, published 2023) are described below.

Type in all cases: cell-based
For data set [1], the system named is Epstein-Barr virus (EBV) reactivation in 1A2 cell line (lymphoma). As to the kind of experiment: EBV reactivation by romidepsin in 1A2 cell line (BZLF1/BRLF1 mRNA). The following applies: romidepsin 1 or 10 nM, 72 hours. On the procedure: (§1) EBV-positive cell lines other than SNK6 and NK92MI were collected to identify EBV reactivity by romidepsin and the effect of sildenafil. As EBV-positive cell lines, the Daudi cell line (ATCC, CCL-213) and Raji cell line (ATCC, CCL-86), which are Burkitt's lymphoma cells, and the 1A2 cell line (ATCC, CRL-8119), which is a lymphoma cell, were treated with 1 or 10 nM of romidepsin for 72 hours, and mRNA expression of BZLF1 and BRLF1, genes whose expression is increased in EBV reactivation, was identified. The results for BZLF1 mRNA expression of the Daudi cell line are shown in FIG. 3A, and the results for BRLF1 mRNA expression are shown in FIG. 3B. In addition, the results for BZLF1 mRNA expression of the Raji cell line are shown in FIG. 3C, and the results for BRLF1 mRNA expression are shown in FIG. 3D. In addition, the results for BZLF1 mRNA expression of the 1A2 cell line are shown in FIG. 3E, and the results for BRLF1 mRNA expression are shown in FIG. 3F.

The subject of data set [2] is Epstein-Barr virus (EBV) reactivation in NK/T-cell lymphoma cell line SNK6. As to the kind of experiment: EBV reactivation by romidepsin in SNK6 cells (real-time PCR of BZLF1/BRLF1 mRNA, EBV copy number). On the procedure:
(§2) The NK/T-cell lymphoma cell line SNK6 (source; Seoul National University) and the NK-cell leukemia cell line NK92MI (source; Seoul National University) were treated with the HDAC inhibitor, romidepsin 10 nM, and the PDE5 inhibitor, sildenafil 100 nM, for 24, 48, and 72 hours. After treatment, cells were harvested […]. Then, RNA was extracted using TRIzol reagent (Ambion, Life technologies), cDNA synthesis was performed using Omniscript RT kit (Qiagen), and the expression of BZLF1, an mRNA expressed during EBV reactivation, was identified through real-time PCR. The group treated with DMSO only was used as a control group.
(§3) BZLF1 mRNA expression was measured in the same manner as in Example 1, with a group treated with sildenafil alone and a group treated with 10 nM of romidepsin simultaneously at a concentration of sildenafil of 10, 100 or 1000 nM in SNK6 and NK92MI cells as experimental groups. The treatment time was 72 hours.
(§4) The inhibition of EBV reactivation by sildenafil (100 nM, 72 hours), which was shown by treatment with 10 nM of romidepsin in SNK6 and NK92MI cell lines for 72 hours, was measured through EBV copy number, BALF5, BZLF1, and BRLF1 expression. In addition, cell growth was measured by counting live cells through trypan blue staining. BALF5 is a gene with the function of generating viral DNA produced through EBV reactivation. DNA was extracted from the medium using QIAamp DNA mini kit (Qiagen) and real-time quantitative PCR was performed to measure […]. […] The results of measuring the number of EBV copies in the SNK6 cells identified as described above are shown in FIG. 5A, the expression of BZLF1 mRNA is shown in FIG. 5B, the expression of BRLF1 mRNA is shown in FIG. 5C, and the survival rate of tumor cells is shown in FIG. 5D. In addition, the expression of BRLF5 mRNA in NK92MI cells is shown in FIG. 6A, the expression of BZLF1 mRNA is shown in FIG. 6B, the expression of BRLF1 mRNA is shown in FIG. 6C, and the survival rate of tumor cells is shown in FIG. 6D.
BZLF1 and BRLF1 mRNA expressions were identified and measured by qPCR in the same manner as in Example 3.1 that EBV reactivation, which was shown by treatment of 10 nM of romidepsin in the SNK6 cell line, was inhibited by the PDE5 inhibitors of vardenafil, udenafil or tadalafil. In this connection, vardenafil was treated with 100 nM for 72 hours, udenafil was treated with 100 nM for 48 hours, and tadalafil was treated with 1000 nM for 24 hours. The expression of BZLF1 mRNA in the vardenafil-administered group is shown in FIG. 7A, and the expression of BRLF1 mRNA is shown in FIG. 7B. In addition, the expression of BZLF1 mRNA in the udenafil-administered experimental group is shown in FIG. 7C, and the expression of BRLF1 mRNA is shown in FIG. 7D. In addition, the expression of BZLF1 mRNA in the tadalafil-administered experimental group is shown in FIG. 7E, and the expression of BRLF1 mRNA is shown in FIG. 7F.
For orientation: In qPCR the cycle at which signal appears reflects the starting amount.

Data set [3] has as its system Epstein-Barr virus (EBV) reactivation in NK-cell leukemia cell line NK92MI. The experiment in a line: EBV reactivation by romidepsin in NK92MI cells (real-time PCR of BZLF1/BRLF1/BALF5). The note with it: 72 hours. On the procedure:
as §2, §3, §4

For data set [4], the system named is Epstein-Barr virus (EBV) reactivation in Daudi cell line (Burkitt's lymphoma). As to the kind of experiment: EBV reactivation by romidepsin in Daudi cell line (BZLF1/BRLF1 mRNA, EBV copy number). The following applies: sildenafil 100 nM + romidepsin 10 nM simultaneously, 72 hours, versus romidepsin alone. On the procedure:
as §1
When sildenafil and romidepsin were simultaneously treated in the Daudi cell line, which is a cell line showing EBV reactivation by romidepsin identified in Example 3.1, an experiment was performed to determine whether EBV reactivation by romidepsin was inhibited. In the Daudi cell line, a group treated with 10 nM of romidepsin and 100 nM of sildenafil separately for 72 hours and a group treated therewith simultaneously were used as experimental groups, and a group treated with DMSO only was used as a control group. In order to measure the EBV copy number secreted out of the cell by EBV reactivation, by extracting DNA from the medium and measuring the Ct value by real-time PCR and comparing the same with the reference EBV number, the EBV copy number was measured and shown in FIG. 4A. In the same manner as in Example 3.1, BZLF1 mRNA expression was measured and shown in FIG. 4B, and BRLF1 mRNA was measured and shown in FIG. 4C.

The test system of data set [5] is SNK6 cells. As to the kind of experiment: Cell growth/viability by counting live cells through trypan blue staining, SNK6. The note with it: sildenafil 100 nM + romidepsin 10 nM, 72 hours; versus romidepsin alone. On the procedure: as §4
For data set [6], the system named is NK92MI cells. The experiment in a line: Cell growth/viability by counting live cells through trypan blue staining, NK92MI. The following applies: sildenafil 100 nM + romidepsin 10 nM, 72 hours; versus romidepsin alone. On the procedure: as §4
The mark [7] stands for this setting: SNK6 cell line, sildenafil 100 nM + romidepsin 10 nM, 72 hours, versus romidepsin alone.
Where [8] appears, read: NK92MI cell line, sildenafil 100 nM + romidepsin 10 nM, versus romidepsin alone.
Setting [9] is: SNK6 cell line, udenafil 100 nM for 48 hours with romidepsin 10 nM.

Regarding `C/C=C1\NC(=O)[C@H]2CSSCC/C=C/[C@H](CC(=O)N[C@H](C(C)C)C(=O)N2)OC(=O)[C@H](C(C)C)NC1=O` [romidepsin], in data set [1], the “expression of BRLF1 mRNA” value is “increased” and the “expression of BZLF1 mRNA” value is “only the expression of BRLF1 was increased”.
For the compound `CCCc1nn(C)c2c(=O)[nH]c(-c3cc(S(=O)(=O)N4CCN(C)CC4)ccc3OCC)nc12` [sildenafil], the EBV copy number entry in data set [2] (setting [7]) is “decreased”. Also, the “expression of BRLF1 mRNA” value in data set [2] (setting [7]) is given as “decreased”; in data set [3] (setting [8]), “decreased”; in data set [4], “no significant difference”. Also, the “expression of BZLF1 mRNA” value in data set [2] (SNK6 cells, sildenafil 100 nM together with romidepsin 10 nM, 72 hours, compared to romidepsin alone) is “significantly decreased”; in data set [3] (NK92MI cells, sildenafil 100 nM together with romidepsin 10 nM, compared to romidepsin alone), “significantly decreased”; in data set [4], “no significant difference”. Besides, the “inhibition of EBV reactivation by romidepsin (BZLF1 mRNA expression)” value is on record as “the effect of inhibiting the reactivation of EBV by romidepsin was observed” in data set [2] (SNK6 cells, sildenafil 10, 100 or 1000 nM in combination with romidepsin 10 nM, 72 hours) and “the effect of inhibiting the reactivation of EBV by romidepsin was observed” in data set [3] (NK92MI cells, sildenafil 10, 100 or 1000 nM in combination with romidepsin 10 nM). Further, in data set [3] (setting [8]), the “expression of BALF5” value is “decreased”. In addition, in data set [4], the “EBV copy number (DNA from the medium)” value is reported as “no significant difference”. In addition, the “viability of the SNK6 cell line (trypan blue)” value in data set [5] was “decreased”. In addition, in data set [6], the “viability of the NK92MI cell line (trypan blue)” value is given as “decreased”.
Regarding `CCCOc1ccc(S(=O)(=O)NCCC2CCCN2C)cc1-c1nc2c(CCC)nn(C)c2c(=O)[nH]1` (centres unmarked) [udenafil], in data set [2] (setting [9]), the “BRLF1 mRNA expression” value is listed as “decreased” and the “BZLF1 mRNA expression” value is given as “decreased”.
